Data reported in ChEMBL document CHEMBL1152929, “Dapholdhamines A-D, alkaloids from Daphniphyllum oldhami” (J Nat Prod, 2009).
The source made the active and inactive calls.

Assays:
Format in all cases: functional, cell-based
KB = experiment: Cytotoxicity against human KB cells
K562 = experiment: Cytotoxicity against human K562 cells
HCT-116 = experiment: Cytotoxicity against human HCT116 cells
SW480 = experiment: Cytotoxicity against human SW480 cells
HL-60 = experiment: Cytotoxicity against human HL60 cells
HT-29 = experiment: Cytotoxicity against human HT-29 cells

Measured: Activity

COC(=O)c1c2ccoc3c-2c2c1C(=O)[C@]1(O)CC4(CC(C)=O)N(C[C@@H](CC3)[C@@]24C)C[C@H]1C
inactive: all assays above

COC(=O)c1c2ccoc3c-2c2c1C(=O)[C@]1(O)C[C@@]4(O)N(C[C@@H](CC3)[C@@]24C)C[C@H]1C
inactive: all assays above

CC(C)[C@H]1CC[C@@]2(C)[C@H]3C[C@@H]4[C@H]5CCC[C@@]4(O)[C@@]2(CCC(=O)O)[C@@H]1N5C3
inactive: all assays above

C[C@@H]1CN2C3[C@@H]4CC[C@@]35CCC[C@H]5[C@@]3(CCC(=O)O)[C@H]2[C@]1(O)CC[C@@]43C
inactive: all assays above
